# Laboratory results from patent US11370785B2, “Multicyclic compounds as farnesoid X receptor modulators” (BRISTOL-MYERS SQUIBB COMPANY, priority 2017, dated 2022).
# Target: T1, human FXR (Homo sapiens, UniProt Q96RI1)
# T1 construct: expressed in transfected cells; host or cells: HEK293 cells stably carrying a 5xGal4-response-element firefly luciferase reporter, transiently transfected with the pcDNA3.1-Gal4-FXR plasmid
# T1 sequence (Q96RI1 262-486 limits assumed): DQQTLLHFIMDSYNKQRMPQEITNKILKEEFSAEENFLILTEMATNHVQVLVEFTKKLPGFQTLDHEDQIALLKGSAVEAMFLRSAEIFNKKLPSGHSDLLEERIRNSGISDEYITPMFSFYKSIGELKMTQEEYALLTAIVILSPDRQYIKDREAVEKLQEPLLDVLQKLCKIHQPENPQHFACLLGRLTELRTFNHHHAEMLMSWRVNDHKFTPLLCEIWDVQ
# Test: transient human FXR/Gal4-luciferase reporter assay
# Type: cell-based
# Conditions: Gal4-hFXR reporter in HEK293 cells; read-out: HLE GAL-FXR EC50
# Protocol: The exemplified compounds of the present invention were tested in the transient human FXR/Gal4-luciferase reporter assay, and assay results were reported in Table 1 together with other analytical data.
# A Gal4-hFXR fusion construct reporter system was used as the primary assay to characterize compound activity. A construct including 5 copies of the Gal4 promoter response element upstream of a firefly luciferase reporter cDNA was stably expressed in HEK293 cells. This reporter cell line was maintained in Dulbecco's Modified Eagle's medium (DMEM; Gibco) supplemented with 1% penicillin-streptomycin (P/S) solution, 500 μg/mL Zeocin and 10% charcoal/dextran-treated fetal bovine serum (cs-FBS) at 37° C. in a humidified 5% CO2 atmosphere. Another plasmid was constructed in which the human cytomegalovirus promoter in the pcDNA3.1 vector directs the expression of the cDNA encoding a fusion protein comprised of the DNA binding domain from the Gal4 transcription factor fused to the ligand binding domain from human FXR.
# The day prior to transfection, the reporter cells in culture are detached from the plate with trypsin and plated into a T75 flask at a sufficient density to achieve approximately 90% confluence the next morning. The transfection reagents are prepared by separately diluting 25 μg of the pcDNA3.1-Gal4-FXR plasmid into 1.87 mL of Opti-MEM (Thermo-Fisher), and 40 μL of Lipofectamine 2000 (Thermo-Fisher) into 1.87 mL of Opti-MEM, and then adding the diluted DNA solution into the diluted Lipofectamine 2000 solution and incubating at room temperature for 15-20 minutes. The mixture is further diluted with 10 mL of a solution comprised of DMEM, 10% cs-FBS, and 1% P/S immediately prior to transferring to the cells. The maintenance culture media is aspirated from the cells and the final transfection mixture is added before the cells are incubated overnight at 37° C. in a humidified 5% CO2 atmosphere. This protocol can be scaled up, and the transiently transfected cells can be cryopreserved in an assay-ready format.
# For compound testing, 100 nL of the compounds (serial dilutions in DMSO) are dispensed with an Echo acoustic dispenser (Labcyte) into the wells of a Corning/Costar clear bottom 384-well white plate. The transfected cells are harvested, counted, and diluted such that 10-25,000 cells in 25 μL are plated into each well of the 384-well compound assay plate. The compound-treated cells are incubated overnight at 37° C. in a humidified 5% CO2 atmosphere. The next morning 25 μL of Steady-Glo (Promega) are added to each well of the plate, the mixture is incubated for 15 min. with shaking, and luminescence is measured on an Envision (Perkin Elmer) plate reader. Background counts from cells treated with DMSO alone are subtracted from all raw counts, and the corrected values are converted to a percentage of the control response attained with 8 μM GW-4064.
row,EC50,SMILES
1,85 nM,"O=C(O)c1cc(F)c2nc(N3CCC4(CC3)CC(Cc3c(-c5ccccc5C(F)(F)F)noc3C3CC3)C4)sc2c1 [Example 3, 2-(2-((5-Cyclopropyl-3-(2-(trifluoromethyl)phenyl)isoxazol-4-yl)methyl)-7-azaspiro[3.5]nonan-7-yl)-4-fluorobenzo[d]thiazole-6-carboxylic acid]"
2,41 nM,"O=C(O)c1cc(F)c2nc(N3CCC4(CC3)CC(=Cc3c(-c5c(Cl)cccc5Cl)noc3C3CC3)C4)sc2c1 [Example 1, 2-(2-((5-Cyclopropyl-3-(2,6-dichlorophenyl)isoxazol-4-yl)methylene)-7-azaspiro[3.5]nonan-7-yl)-4-fluorobenzo[d]thiazole-6-carboxylic acid]"

# Same assay, conditions: Gal4-hFXR reporter in HEK293 cells; relative to 8 μM GW-4064; read-out: FXR EC50
row,EC50,SMILES
1,76 nM,O=C(c1cc(OC2CCC2)c2cc(N3CCC4(CC3)CC(Cc3c(-c5ccccc5C(F)(F)F)noc3C3CC3)C4)ccc2n1)N1CCCC1 [Example 188]
2,326 nM,O=C(O)c1cc(CO)c2cc(N3CCC4(CC3)CC(Cc3c(-c5ccccc5C(F)(F)F)noc3C3CC3)C4)ccc2n1 [Example 154]
3,160 nM,CC(O)Cc1cc(C(=O)O)nc2ccc(N3CCC4(CC3)CC(Cc3c(-c5ccccc5C(F)(F)F)noc3C3CC3)C4)cc12 (centres unmarked) [Example 147]
4,37 nM,C=Cc1cncc(Cl)c1-c1noc(C2CC2)c1C=C1CC2(CCN(c3ccc4nc(C(=O)O)cc(C(F)(F)F)c4c3)CC2)C1 [Example 160]
5,2 nM,CC(C)Oc1cc(C(=O)O)nc2ccc(N3CCC4(CC3)CC(=Cc3c(-c5ccccc5OC(F)(F)F)noc3C3CC3)C4)cc12 [Example 80]
6,2240 nM,NC(=O)c1cc(C(F)(F)F)c2cc(N3CCC4(CC3)CC(Cc3c(-c5ccccc5C(F)(F)F)noc3C3CC3)C4)ccc2n1 [Example 177]
7,4700 nM,O=C(O)c1ccc(N2CCC3(CC2)CC(=Cc2c(C4CC4)cnn2-c2c(Cl)cccc2Cl)C3)nc1 [Example 22]
8,1350 nM,Cc1cc2cc(N3CCC4(CC3)CC(=Cc3c(-c5c(Cl)cccc5Cl)noc3C3CC3)C4)ccc2nc1C(=O)O [Example 43]
9,1600 nM,"CC(=O)N1CCc2cc(N3CCC4(CC3)CC(=Cc3c(-c5ccccc5OC(F)(F)F)noc3C3CC3)C4)ccc2C1 [Example 179, 1-(6-(2-((5-Cyclopropyl-3-(2-(trifluoromethoxy)phenyl)isoxazol-4-yl)methylene)-7-azaspiro[3.5]nonan-7-yl)-3,4-dihydroisoquinolin-2(1H)-yl)ethan-1-one]"
10,502 nM,O=C(O)c1ccc2cc(N3CCC4(CC3)CC(=Cc3c(-c5ccccc5C(F)(F)F)noc3C(F)(F)F)C4)ccc2n1 [Example 193]
11,36 nM,"O=C(O[C@@H]1O[C@H](C(=O)O)[C@@H](O)[C@H](O)[C@H]1O)c1cc(C(F)(F)F)c2cc(N3CCC4(CC3)CC(Cc3c(-c5ccccc5C(F)(F)F)noc3C3CC3)C4)ccc2n1 [Example 145, (2S,3S,4S,5R,6S)-6-((6-(2-((5-Cyclopropyl-3-(2-(trifluoromethyl)phenyl)isoxazol-4-yl)methyl)-7-azaspiro[3.5]nonan-7-yl)-4-(trifluoromethyl)quinoline-2-carbonyl)oxy)-3,4,5-trihydroxytetrahydro-2H-pyran-2-carboxylic acid]"
12,12 nM,O=C(O)c1cc(C(F)(F)F)c2cc(N3CCC4(CC3)CC(=Cc3c(-c5ccccc5C(F)(F)F)noc3C3CC3)C4)ccc2n1 [Example 30]
13,152 nM,Cc1cccc(Cl)c1-c1noc(C2CC2)c1C=C1CC2(CCN(c3ccc4nc(C(=O)O)ccc4c3)CC2)C1 [Example 56]
14,34 nM,O=C(c1cc(OC2CCC2)c2cc(N3CCC4(CC3)CC(Cc3c(-c5ccccc5C(F)(F)F)noc3C3CC3)C4)ccc2n1)N1CCCCC1 [Example 189]
15,40 nM,O=C(O)c1cn(C(F)F)c2cc(N3CCC4(CC3)CC(=Cc3c(-c5c(Cl)cncc5Cl)noc3C3CC3)C4)ccc12 [Example 77]
16,6 nM,O=C(O)c1cc(OC2CCCC2)c2cc(N3CCC4(CC3)CC(Cc3c(-c5ccccc5C(F)(F)F)noc3C3CC3)C4)ccc2n1 [Example 123]
17,442 nM,CCOc1cc(C(=O)O)ncc1N1CCC2(CC1)CC(=Cc1c(-c3ccccc3C(F)(F)F)noc1C1CC1)C2 [Example 141]
18,1700 nM,C=Cc1cncc(C=C)c1-c1noc(C2CC2)c1C=C1CC2(CCN(c3nc4c(F)cc(C(=O)O)cc4s3)CC2)C1 [Example 165]
19,10 nM,Cc1cccc(Cl)c1-c1noc(C2CC2)c1C=C1CC2(CCN(c3ccc4nc(C(=O)O)cc(C(F)(F)F)c4c3)CC2)C1 [Example 58]
20,661 nM,Cc1cccc(Cl)c1-c1noc(C2CC2)c1C=C1CC2(CCN(S(=O)(=O)c3cccc(C(=O)O)c3)CC2)C1 [Example 63]

row,EC50,SMILES
1,1550 nM,COc1cc(C(=O)O)nc2ccc(N3CCC4(CC3)CC(=Cc3c(C(C5CC5)C5CC5)noc3C3CC3)C4)cc12 [Example 107]
2,2360 nM,"N#Cc1ccc(N2CCC3(CC2)CC(=Cc2c(-c4c(Cl)cccc4Cl)noc2C2CC2)C3)cc1 [Example 48, 4-(2-((5-cyclopropyl-3-(2,6-dichlorophenyl)isoxazol-4-yl)methylene)-7-azaspiro[3.5]nonan-7-yl)benzonitrile]"
3,44 nM,O=C(c1cc(OC2CCC2)c2cc(N3CCC4(CC3)CC(Cc3c(-c5ccccc5C(F)(F)F)noc3C3CC3)C4)ccc2n1)N1CCOCC1 [Example 181]
4,24 nM,COCCN(C)C(=O)c1cc(OC2CCC2)c2cc(N3CCC4(CC3)CC(Cc3c(-c5ccccc5C(F)(F)F)noc3C3CC3)C4)ccc2n1 [Example 182]
5,1030 nM,O=C(O)C1CCc2cc(N3CCC4(CC3)CC(=Cc3c(-c5ccccc5OC(F)(F)F)noc3C3CC3)C4)ccc2N1 (centres unmarked) [Example 112]
6,112 nM,CCOc1cc(C(N)=O)ncc1N1CCC2(CC1)CC(=Cc1c(-c3c(Cl)cncc3Cl)noc1C1CC1)C2 [Example 146]
7,540 nM,O=C(O)c1ccc(S(=O)(=O)N2CCC3(CC2)CC(Cc2c(-c4c(Cl)cccc4Cl)noc2C2CC2)C3)cc1 [Example 174]
8,47 nM,O=C(O)c1cc(OC2COC2)c2cc(N3CCC4(CC3)CC(=Cc3c(-c5c(Cl)cncc5Cl)noc3C3CC3)C4)ccc2n1 [Example 139]
9,1930 nM,O=C(c1cc(OC2CCC2)c2cc(N3CCC4(CC3)CC(Cc3c(-c5ccccc5C(F)(F)F)noc3C3CC3)C4)ccc2n1)N1CC(F)(F)C1 [Example 186]
10,73 nM,COCCOc1cc(C(=O)O)nc2ccc(N3CCC4(CC3)CC(Cc3c(-c5ccccc5C(F)(F)F)noc3C3CC3)C4)cc12 [Example 97]
11,667 nM,COc1cc2nc(N3CCC4(CC3)CC(=Cc3c(-c5ccccc5C(F)(F)F)noc3C3CC3)C4)sc2cc1C(=O)O [Example 104]
12,6 nM,O=C(O)c1cc(O[C@H]2CCOC2)c2cc(N3CCC4(CC3)CC(Cc3c(-c5ccccc5C(F)(F)F)noc3C3CC3)C4)ccc2n1 [Example 152]
13,173 nM,O=C(O)c1cc(F)c2nc(N3CCC4(CC3)CC(=Cc3c(-c5ccccc5C(F)(F)F)noc3C3CC3)C4)sc2c1 [Example 31]
14,54 nM,Cn1cc(-c2nn[nH]n2)c2ccc(N3CCC4(CC3)CC(=Cc3c(-c5ccccc5C(F)(F)F)noc3C3CC3)C4)cc21 [Example 62]
15,2 nM,O=C(O)c1cc(OC(F)F)c2cc(N3CCC4(CC3)CC(Cc3c(-c5ccccc5C(F)(F)F)noc3C3CC3)C4)ccc2n1 [Example 79]
16,33 nM,O=C(O)c1cc(OC(F)(F)F)c2nc(N3CCC4(CC3)CC(=Cc3c(-c5c(Cl)cncc5Cl)noc3C3CC3)C4)sc2c1 [Example 101]
17,350 nM,C=Cc1cncc(Cl)c1-c1noc(C2CC2)c1C=C1CC2(CCN(c3nc4c(F)cc(C(=O)O)cc4s3)CC2)C1 [Example 159]
18,65 nM,COc1cc(C(=O)O)nc2ccc(N3CCC4(CC3)CC(=Cc3c(-c5ccccc5OC(F)(F)F)noc3C3CC3)C4)cc12 [Example 70]
19,5 nM,CC(C)Oc1cc(C(=O)O)nc2ccc(N3CCC4(CC3)CC(=Cc3c(-c5ccccc5C(F)(F)F)noc3C3CC3)C4)cc12 [Example 83]
